Reference: PubChem BioAssay (NCI)
Where “and” joins values, the source holds several entries; their conditions need not be identical. Identical values can stand only once.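 Values below derive from 48-hour exposures of cells grown in 96-well plates, with endpoints linearly interpolated between the two concentrations bracketing the appropriate inhibition level. GI50: concentration for 50% inhibition of growth. At the TGI there is no net growth.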

Assays:
Assay in all cases: NCI anticancer screen, dose series, 48 h
EKVX NSCLC = system: EKVX NSCLC
HS 578T breast = system: HS 578T breast
MDA-MB-231 breast = system: MDA-MB-231 breast
MDA-MB-435 = system: MDA-MB-435
MOLT-4 leukemia = system: MOLT-4 leukemia
OVCAR-5 ovarian = system: OVCAR-5 ovarian
SK-MEL-2 melanoma = system: SK-MEL-2 melanoma
SNB-75 CNS = system: SNB-75 CNS
SW-620 colon = system: SW-620 colon
UACC-62 melanoma = system: UACC-62 melanoma

SMILES	GI50 (EKVX NSCLC)	TGI (EKVX NSCLC)	GI50 (HS 578T breast)	TGI (HS 578T breast)	GI50 (MDA-MB-231 breast)	TGI (MDA-MB-231 breast)	GI50 (MDA-MB-435)	TGI (MDA-MB-435)	GI50 (MOLT-4 leukemia)	TGI (MOLT-4 leukemia)	GI50 (OVCAR-5 ovarian)	TGI (OVCAR-5 ovarian)	GI50 (SK-MEL-2 melanoma)	TGI (SK-MEL-2 melanoma)	GI50 (SNB-75 CNS)	TGI (SNB-75 CNS)	GI50 (SW-620 colon)	TGI (SW-620 colon)	GI50 (UACC-62 melanoma)	TGI (UACC-62 melanoma)
NCCCn1c2c(c3ccc([N+](=O)[O-])cc3c1=O)C(=O)c1cc(I)ccc1-2	0.79 µM	2.32 µM	1.98 µM	4.33 µM	1.8 µM	3.48 µM	0.223 µM	1.85 µM	< 0.01 µM	0.251 µM	0.556 µM	1.95 µM	0.649 µM	2.28 µM	0.95 µM	3.9 µM	< 0.01 µM	1.76 µM	< 0.01 µM	1.21 µM
COC(=O)C1=CN(CC2=CC(=O)C(C)=CC2=O)C=C(C(=O)OC)C1c1ccccc1OC	28.8 µM	> 100 µM	25.9 µM	77.8 µM	9.66 µM	28 µM	21.8 µM	> 53.7 µM	5.61 µM	14.2 µM	19.7 µM	34.9 µM	45.2 µM	> 100 µM	> 100 µM	> 100 µM	18.5 µM	> 64.9 µM	13.3 µM	27.5 µM
CC[C@]1(O)C[C@H]2CN(CCc3c([nH]c4ccccc34)C(C(=O)OC)(c3cc4c(cc3OC)N(C)[C@H]3[C@@](O)(C(=O)OC)[C@H](OC(C)=O)[C@]5(CC)[C@@H]6C[C@@H]6CN6CC[C@]43[C@@H]65)C2)C1 (some centres not stated)	0.00688 µM	> 14.3 µM	0.00331 µM	–	0.0075 µM	0.239 µM	< 0.00143 µM	0.00219 µM	0.0074 µM	5.43 µM	0.00974 µM	> 6.67 µM	< 0.00143 µM	0.143 µM	0.00437 µM	6.36 µM	0.00564 µM	> 14.3 µM	0.0022 µM	> 14.3 µM
COc1cc2c(cc1OCCCN1CCN(CCCOc3cc4c(cc3OC)C(=O)N3CC(F)(F)C[C@H]3C=N4)CC1)N=C[C@@H]1CC(F)(F)CN1C2=O	29.1 µM	> 100 µM	2.32 µM	9.55 µM	4.29 µM	17.6 µM	2.94 µM	11.1 µM	2.02 µM	8.37 µM	3.83 µM	11.4 µM	10.3 µM	23.1 µM	5.52 µM	21.1 µM	2.61 µM	12.5 µM	3.05 µM	13.2 µM
NNc1ncnc2nc[nH]c12	7.17 µM	> 100 µM	7.71 µM	> 70 µM	2.92 µM	31.7 µM	5.57 µM	> 100 µM	5.31 µM	> 60.1 µM	3.18 µM	> 40.4 µM	9.27 µM	97.4 µM	24.7 µM	> 100 µM	3.91 µM	> 100 µM	3.05 µM	39.9 µM
O=c1[nH]c(-c2cccc(F)c2)cc2cc(F)ccc12	2.34 µM	> 100 µM	0.381 µM	> 72.8 µM	2.37 µM	> 100 µM	0.0279 µM	0.0797 µM	0.568 µM	> 100 µM	1.74 µM	> 100 µM	0.513 µM	> 100 µM	0.211 µM	> 100 µM	0.174 µM	> 100 µM	0.571 µM	> 100 µM
CNc1cc2oc(=O)cc(C)c2cc1C	–	> 100 µM	–	> 100 µM	–	> 100 µM	–	> 100 µM	–	> 100 µM	–	> 100 µM	–	> 100 µM	–	> 100 µM	–	> 100 µM	–	> 100 µM
O=c1cccc(C#CC#C[C@@H]2O[C@H]2CO)o1	1.79 µM	3.43 µM	5.18 µM	24.5 µM	0.233 µM	0.877 µM	2.12 µM	4.56 µM	0.33 µM	> 100 µM	0.49 µM	1.88 µM	2.2 µM	–	0.434 µM	4.07 µM	0.746 µM	3.77 µM	0.477 µM	1.1 µM
COc1c(C)c(OCC=C(C)C)cc(CO)c1CO	–	> 100 µM	–	> 100 µM	–	> 100 µM	–	> 100 µM	–	> 100 µM	–	> 100 µM	–	> 100 µM	–	> 100 µM	–	> 100 µM	–	> 100 µM
COc1ccc(CNc2c3ccccc3nc3ccccc23)cc1F	3.59 µM	14.5 µM	3.06 µM	11.5 µM	3.16 µM	10.7 µM	2.9 µM	–	3.28 µM	14.6 µM	3.52 µM	13.5 µM	3.45 µM	13.4 µM	3.21 µM	15.2 µM	2.51 µM	10.5 µM	2.97 µM	12.9 µM
CCCCCCn1c(-c2ccc(C(=O)O/N=C(\N)c3ccc4c(c3)OCO4)cc2)nc(-c2ccccc2)c1-c1ccccc1	1.76 µM	3.96 µM	1.64 µM	3.95 µM	2.41 µM	6.72 µM	1.77 µM	3.35 µM	1.74 µM	4.55 µM	2.9 µM	13.8 µM	4.19 µM	21.7 µM	1.7 µM	4.9 µM	2.8 µM	12 µM	2.87 µM	10.5 µM
CCOC(=O)Nc1c(C)nc2ccccn12	> 100 µM	> 100 µM	> 100 µM	> 100 µM	> 100 µM	> 100 µM	> 100 µM	> 100 µM	> 100 µM	> 100 µM	> 100 µM	> 100 µM	> 100 µM	> 100 µM	> 100 µM	> 100 µM	> 100 µM	> 100 µM	> 100 µM	> 100 µM
CNc1nc(N)nc(Nc2ccc(I)cc2)c1N=O	–	> 100 µM	–	> 100 µM	–	> 100 µM	–	> 100 µM	–	> 100 µM	–	> 100 µM	–	> 100 µM	–	> 100 µM	–	> 100 µM	–	> 100 µM
C=CC12CCN(CC1)C(C(O)c1ccnc3ccc(OC)cc13)C2 (configuration not stated)	> 100 µM	> 100 µM	> 100 µM	> 100 µM	> 100 µM	> 100 µM	> 100 µM	> 100 µM	> 100 µM	> 100 µM	> 100 µM	> 100 µM	> 100 µM	> 100 µM	95.3 µM	> 100 µM	> 100 µM	> 100 µM	> 100 µM	> 100 µM
NC(=O)c1cc(I)ccc1NC(=O)/C=C/c1ccccc1	0.787 µM	> 68.8 µM	0.364 µM	15.4 µM	0.769 µM	> 67.2 µM	0.192 µM	0.445 µM	0.539 µM	–	3.17 µM	> 51.8 µM	2.25 µM	> 56.6 µM	0.316 µM	8.68 µM	0.48 µM	> 100 µM	0.457 µM	> 77.6 µM
COc1ccc2c(=O)oc3c(OC)cc(CCN(C)C)c4c(=O)oc1c2c34	17.8 µM and 7.55 µM	34.9 µM and 15.9 µM	–	24 µM	–	16.1 µM	–	16.1 µM	–	26.8 µM and 17.1 µM	–	31.9 µM and 22.3 µM	–	33.1 µM and 29 µM	16.4 µM and 8.17 µM	31.5 µM and 17.2 µM	14 µM and 5.86 µM	28.1 µM and 17.4 µM	–	31.7 µM and 16.6 µM
Cc1cc(C(=O)CSC(=S)SC(C)(C)C)ccc1Cl	–	56.8 µM	–	82.3 µM	–	36.4 µM	–	91.1 µM	–	62.9 µM	–	43.9 µM	–	35 µM	–	54.3 µM	–	68.3 µM	–	30.1 µM
CCOC(=O)c1c(C)c2c(n1Cc1ccccc1)CSCC2=O	16.3 µM	> 100 µM	10.8 µM	53.3 µM	14.7 µM	51.2 µM	17.3 µM	39.1 µM	12.2 µM	51.9 µM	20.9 µM	89.1 µM	18.4 µM	45.7 µM	18.4 µM	> 100 µM	17.4 µM	47 µM	10.3 µM	29.9 µM
CO[C@@H]1CC[C@]2(C)OC[C@H](C)[C@@H]3C[C@@H](C)[C@@H](OC(C)=O)[C@@H]4[C@H]3[C@@H]2O[C@H]4C[C@@]1(C)O	> 100 µM	> 100 µM	> 100 µM	> 100 µM	> 100 µM	> 100 µM	> 100 µM	> 100 µM	> 100 µM	> 100 µM	> 100 µM	> 100 µM	> 100 µM	> 100 µM	> 100 µM	> 100 µM	> 100 µM	> 100 µM	> 100 µM	> 100 µM
C[C@H](CCOc1cccc(CC(=O)O)c1)N(Cc1cccc(C(F)(F)F)c1Cl)CC(c1ccccc1)c1ccccc1	4.04 µM	19.1 µM	3.79 µM	20.7 µM	10.5 µM	25.1 µM	7.02 µM	20.2 µM	4.95 µM	23.1 µM	13.4 µM	28.1 µM	5.84 µM	28.2 µM	9.83 µM	22 µM	5.28 µM	20.7 µM	2.72 µM	8.44 µM
C=C(C)C(C1C=C(CCC(C=O)=C(C)C)C(=O)O1)C1(OC)C=C(C)C(=O)O1 (configuration not stated)	> 100 µM	> 100 µM	> 100 µM	> 100 µM	> 100 µM	> 100 µM	> 100 µM	> 100 µM	34.8 µM	> 100 µM	> 100 µM	> 100 µM	> 100 µM	> 100 µM	> 100 µM	> 100 µM	39.6 µM	> 100 µM	95.4 µM	> 100 µM
COC(=O)c1c(C)cc(OC)c(C/C=C(\C)CCCc2coc(C=C(C)C)c2)c1OC	–	> 100 µM	–	79.7 µM	–	> 100 µM	–	> 100 µM	–	> 100 µM	–	> 100 µM	–	> 100 µM	–	> 100 µM	–	> 100 µM	–	> 100 µM
COC(=O)/C=C/c1cc(OC(C)=O)c2c(c1)C(C(=O)OC)C(c1ccc(OC(C)=O)c(OC(C)=O)c1)O2 (configuration not stated)	2.28 µM	> 86 µM	0.0521 µM	68.2 µM	0.442 µM	> 21.3 µM	0.0219 µM	0.0606 µM	0.0582 µM	> 47.4 µM	3.42 µM	> 100 µM	3.69 µM	> 100 µM	0.0382 µM	56.7 µM	0.0468 µM	> 100 µM	0.298 µM	21.8 µM
O=[N+]([O-])c1ccccc1N=Nc1c(O)[nH]c2c(Cl)cc(Cl)cc12	–	99.5 µM	–	53 µM	–	> 69.3 µM	–	> 100 µM	–	> 87.8 µM	–	> 100 µM	–	> 74.3 µM	–	25.6 µM	–	> 100 µM	–	> 100 µM
Nc1nc(Cl)nc2c1ncn2C1CC(O)C(CO)O1 (configuration not stated)	–	34.5 µM	> 100 µM	> 100 µM	> 79.8 µM	> 100 µM	0.54 µM	> 100 µM	–	> 79.3 µM	–	> 100 µM	–	> 100 µM	–	> 91.9 µM	–	> 100 µM	–	6.15 µM
